# Laboratory results: patent US20180022780A1, “STABILIZATION ADRENOMEDULLIN DERIVATIVES AND USE THEREOF” (priority 2014, published 2018)
# Bridge positions count the residues as written; N and C are the ends. Square brackets hold non-standard residues; d marks the D form. Ends that are not written are not given here. Peptide text beside a SMILES is read from it. * marks the point of attachment. X1 = CN(C)c1ccc2c(c1)Oc1cc(N(C)C)ccc1C21OC(=O)c2ccc(C(=O)*)cc21; Palmitoyl = CCCCCCCCCCCCCCCC(=O)*; NMeK = CN[C@@H](CCCCN)C(=O)O; Dap = NC[C@H](N)C(=O)O
# What was measured:
# [1] = Stability in human blood plasma (TAM-labeled analogues); format: in vitro ADME; conditions: 10E-5 M, 37° C., two phase decay, N-terminally TAM-labeled analogues, read-out: HalfLife (Slow) (converted)
# Excerpt: FIG. 3: Stability of peptides in plasma calculated with GraphPad Prism 5 (GraphPad Software) using two phase decay analysis for the determination of half-life (slow) (Test 1e). N-terminally 6-carboxytetramethylrhodamine-(TAM)-labeled analogues of Control: TAM[G^14]ADM(14-52); Example 18: TAM[K^14(PAM), (Dpr^16, E^21)lac]ADM(14-52); and Example 27: TAM[K^14(PAM), (Dpr^16, E^21)lac, Nα-Me-K^46]ADM(14-52).
# The stability of the peptides was investigated using N-terminally 6-carboxytetramethylrhodamine-(TAM)-labeled analogues.
# Fluorescently labeled ADM analogues were prepared by using solid phase peptide synthesis (SPPS) as described before (general method for peptide synthesis). Manual coupling of 6-carboxytetramethylrhodamine (TAM) to the N-terminus of the peptides was carried out with a 3-fold molar excess of the fluorescence dye, 2-(1H-benzotriazol-1-yl)-1,1,3,3-tetramethyluronium hexafluorophosphate (HBTU) and N,N-Diisopropylethylamine (DIPEA) in DMF under constant shaking for 24 h the resin as described recently (Bohme D., Beck-Sickinger A. G. ChemMedChem 2015, 10: 804-14). The identity of the peptides was confirmed by mass spectrometry with an MALDI-MS (UltraflexIII, Bruker) and an ESI-MS (HCT, Bruker). The observed masses were in correspondence to the calculated masses.
# The peptides were dissolved in 1.5 ml of human blood plasma to a concentration of 10E-5 M and incubated at 37° C. under constant shaking. […] The samples were analyzed by RP-HPLC using a Varian VariTide RPC column (particle size 6 μm; pore size 200 Å; 250×4.6 mm) with linear gradients of 0.1% TFA in water and 0.08% TFA in ACN; fluorescence emission was detected at λ=573 nm. The percentage of intact peptide was determined by peak integration. […] The stability of the peptides was calculated with GraphPad Prism 5 (GraphPad Software) using a two phase exponential decay function for the determination of slow-decay phase half-lives (ln(2)/Kslow; Kslow: rate constant of slow part of exponential decay) (Table 3 and FIG. 3).
# [2] = tested on: mean arterial blood pressure; conditions: doses of ≦300 μg/kg body weight; reference WO 2013/064508 A1; cited from earlier work
# [3] = only at −80° C. under argon atmosphere; cited from earlier work
# guinea pig atria = conditions: cited from earlier work
# [4] = tested on: receptor in rat spleen membranes; conditions: cited from earlier work
compound,measurement,setting,value
"CCCCCCCCCCCCCCCC(=O)NCCCC[C@H](NC(=O)c1ccc2c(c1)C1(OC2=O)c2ccc(N(C)C)cc2Oc2cc(N(C)C)ccc21)C(=O)NCC(=O)N[C@H]1CNC(=O)CC[C@@H](C(=O)N[C@H](C(=O)N[C@H](C(=O)N[C@@H](CCC(N)=O)C(=O)N[C@@H](CCCCN)C(=O)N[C@@H](CC(C)C)C(=O)N[C@@H](C)C(=O)N[C@@H](Cc2c[nH]cn2)C(=O)N[C@@H](CCC(N)=O)C(=O)N[C@H](C(=O)N[C@@H](Cc2ccc(O)cc2)C(=O)N[C@@H](CCC(N)=O)C(=O)N[C@@H](Cc2ccccc2)C(=O)N[C@H](C(=O)N[C@@H](CC(=O)O)C(=O)N[C@@H](CCCCN)C(=O)N[C@@H](CC(=O)O)C(=O)N[C@@H](CCCCN)C(=O)N[C@@H](CC(=O)O)C(=O)N[C@@H](CC(N)=O)C(=O)N[C@H](C(=O)N[C@@H](C)C(=O)N2CCC[C@H]2C(=O)N[C@@H](CCCNC(=N)N)C(=O)N[C@@H](CO)C(=O)N[C@@H](CCCCN)C(=O)N[C@H](C(=O)N[C@@H](CO)C(=O)N2CCC[C@H]2C(=O)N[C@@H](CCC(N)=O)C(=O)NCC(=O)N[C@@H](Cc2ccc(O)cc2)C(N)=O)[C@@H](C)CC)C(C)C)[C@@H](C)O)[C@@H](C)CC)C(C)C)[C@@H](C)O)NC(=O)[C@H]([C@@H](C)O)NC(=O)CNC(=O)[C@H](Cc2ccccc2)NC(=O)[C@H](CCCNC(=N)N)NC1=O [TAM-18, TAM[K^14(PAM), (Dpr^16, E^21)lac]ADM(14-52)] (X1-K(Palmitoyl)G[Dap]RFGTETVQKLAHQIYQFTDKDKDNVAPRSKISPQGY-NH2; lactam 3-8)",half-life at 0.0001 M,[1],> 96 h
"CCCCCCCCCCCCCCCC(=O)NCCCC[C@H](NC(=O)c1ccc2c(c1)C1(OC2=O)c2ccc(N(C)C)cc2Oc2cc(N(C)C)ccc21)C(=O)NCC(=O)N[C@H]1CNC(=O)CC[C@@H](C(=O)N[C@H](C(=O)N[C@H](C(=O)N[C@@H](CCC(N)=O)C(=O)N[C@@H](CCCCN)C(=O)N[C@@H](CC(C)C)C(=O)N[C@@H](C)C(=O)N[C@@H](Cc2c[nH]cn2)C(=O)N[C@@H](CCC(N)=O)C(=O)N[C@H](C(=O)N[C@@H](Cc2ccc(O)cc2)C(=O)N[C@@H](CCC(N)=O)C(=O)N[C@@H](Cc2ccccc2)C(=O)N[C@H](C(=O)N[C@@H](CC(=O)O)C(=O)N[C@@H](CCCCN)C(=O)N[C@@H](CC(=O)O)C(=O)N[C@@H](CCCCN)C(=O)N[C@@H](CC(=O)O)C(=O)N[C@@H](CC(N)=O)C(=O)N[C@H](C(=O)N[C@@H](C)C(=O)N2CCC[C@H]2C(=O)N[C@@H](CCCNC(=N)N)C(=O)N[C@@H](CO)C(=O)N(C)[C@@H](CCCCN)C(=O)N[C@H](C(=O)N[C@@H](CO)C(=O)N2CCC[C@H]2C(=O)N[C@@H](CCC(N)=O)C(=O)NCC(=O)N[C@@H](Cc2ccc(O)cc2)C(N)=O)[C@@H](C)CC)C(C)C)[C@@H](C)O)[C@@H](C)CC)C(C)C)[C@@H](C)O)NC(=O)[C@H]([C@@H](C)O)NC(=O)CNC(=O)[C@H](Cc2ccccc2)NC(=O)[C@H](CCCNC(=N)N)NC1=O [TAM-27, TAM[K^14(PAM), (Dpr^16, E^21)lac, Nα-Me-K^46]ADM(14-52)] (X1-K(Palmitoyl)G[Dap]RFGTETVQKLAHQIYQFTDKDKDNVAPRS[NMeK]ISPQGY-NH2; lactam 3-8)",half-life at 0.0001 M,[1],> 96 h
"CC[C@H](C)[C@H](NC(=O)[C@H](CCC(N)=O)NC(=O)[C@H](Cc1c[nH]cn1)NC(=O)[C@H](C)NC(=O)[C@H](CC(C)C)NC(=O)[C@H](CCCCN)NC(=O)[C@H](CCC(N)=O)NC(=O)[C@@H](NC(=O)[C@@H](NC(=O)[C@@H]1CSSC[C@H](NC(=O)CNC(=O)CNC(=O)c2ccc3c(c2)C2(OC3=O)c3ccc(N(C)C)cc3Oc3cc(N(C)C)ccc32)C(=O)N[C@@H](CCCNC(=N)N)C(=O)N[C@@H](Cc2ccccc2)C(=O)NCC(=O)N[C@@H]([C@@H](C)O)C(=O)N1)[C@@H](C)O)C(C)C)C(=O)N[C@@H](Cc1ccc(O)cc1)C(=O)N[C@@H](CCC(N)=O)C(=O)N[C@@H](Cc1ccccc1)C(=O)N[C@H](C(=O)N[C@@H](CC(=O)O)C(=O)N[C@@H](CCCCN)C(=O)N[C@@H](CC(=O)O)C(=O)N[C@@H](CCCCN)C(=O)N[C@@H](CC(=O)O)C(=O)N[C@@H](CC(N)=O)C(=O)N[C@H](C(=O)N[C@@H](C)C(=O)N1CCC[C@H]1C(=O)N[C@@H](CCCNC(=N)N)C(=O)N[C@@H](CO)C(=O)N[C@@H](CCCCN)C(=O)N[C@H](C(=O)N[C@@H](CO)C(=O)N1CCC[C@H]1C(=O)N[C@@H](CCC(N)=O)C(=O)NCC(=O)N[C@@H](Cc1ccc(O)cc1)C(N)=O)[C@@H](C)CC)C(C)C)[C@@H](C)O [TAM-control, TAM[G^14]ADM(14-52), reference compound]",half-life at 0.0001 M,[1],9 h
adrenomedullin (human) [wt ADM],duration of blood pressure reduction,[2],≤ 4 h
"amylin-(1-8) (KCNTATCA; ends and bridges not checked; cysteine pairing not given here; UniProt P10997 34-41, looked up, fragment) [native octapeptide amylin (1-8), literature]",time stable on storage,[3],6 month
"cyclo [Asp^2, Lys^7]-CGRP",biological activity (agonist function),guinea pig atria,loss of agonist function
same,decrease in affinity to the receptor,[4],50%
